# In ChEMBL document CHEMBL1201862, “PubChem BioAssay data set” (2004):
# Where “and” joins values, the source holds several entries; their conditions need not be identical. Equal entries are not always repeated.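 All cell lines were grown in 96-well plates and treated with compound for 48 hours. Abbreviation: GI50, concentration required for 50% inhibition of growth.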 Calls of active or inactive are those of the source. No stated cut-off is given here; in the data, active = GI50 up to about 1.1 µM and inactive = higher.
# Key:
# Test in all cases: inhibition of tumour cell growth, NCI panel, 48 h
# OVCAR-4 = test system: OVCAR-4
# CAKI-1 = test system: CAKI-1
# HOP-92 = test system: HOP-92
# UO-31 = test system: UO-31
# M14 = test system: M14
# IGROV-1 = test system: IGROV-1
# SK-MEL-5 = test system: SK-MEL-5
# ACHN = test system: ACHN
# SW-620 = test system: SW-620
# MDA-MB-231 = test system: MDA-MB-231
# Malme-3M = test system: Malme-3M
# SK-MEL-28 = test system: SK-MEL-28
# LOX IMVI = test system: LOX IMVI
# Hs-578T = test system: Hs-578T
# KM12 = test system: KM12
# CCRF-CEM = test system: CCRF-CEM
# NCI/ADR-RES = test system: NCI/ADR-RES
# A549 = test system: A549
# TK-10 = test system: TK-10
# SF-295 = test system: SF-295
# HCT-15 = test system: HCT-15
# OVCAR-8 = test system: OVCAR-8
# OVCAR-5 = test system: OVCAR-5
# SF-539 = test system: SF-539
# UACC-257 = test system: UACC-257
# MCF7 = test system: MCF7
# MDA-N = test system: MDA-N
# SK-OV-3 = test system: SK-OV-3
# 786-0 = test system: 786-0
# NCI-H23 = test system: NCI-H23
# A498 = test system: A498
# SR = test system: SR
# SK-MEL-2 = test system: SK-MEL-2
# EKVX = test system: EKVX
# DU-145 = test system: DU-145
# NCI-H226 = test system: NCI-H226
# PC-3 = test system: PC-3
# UACC-62 = test system: UACC-62
# COLO 205 = test system: COLO 205
# HOP-62 = test system: HOP-62
# U-251 = test system: U-251
# OVCAR-3 = test system: OVCAR-3
# SNB-19 = test system: SNB-19
# HT-29 = test system: HT-29
# SNB-75 = test system: SNB-75
# HCT-116 = test system: HCT-116
# SF-268 = test system: SF-268
# MOLT-4 = test system: MOLT-4
# SN12C = test system: SN12C
# K562 = test system: K562
# MDA-MB-435 = test system: MDA-MB-435
# RPMI-8226 = test system: RPMI-8226
# NCI-H460 = test system: NCI-H460
# T47D = test system: T47D
# HL-60 = test system: HL-60
# HCC 2998 = test system: HCC 2998
# RXF 393 = test system: RXF 393
compound,measurement,setting,value
CC(=O)OCC1OC(n2c(=S)n(-c3ccccc3)c(=O)c3ccccc32)C(OC(C)=O)C(OC(C)=O)C1OC(C)=O (stereo unspecified),GI50,OVCAR-4,55.8 µM (inactive) and 48.1 µM (inactive)
same,GI50,CAKI-1,91.8 µM (inactive) and 83.4 µM (inactive)
same,GI50,HOP-92,47.8 µM (inactive) and 33.6 µM (inactive)
CCCC(=O)Oc1ccc2c(C)cc(=O)oc2c1OC(=O)CCC,GI50,UO-31,60.1 µM (inactive)
same,GI50,M14,48.6 µM (inactive)
same,GI50,IGROV-1,45.7 µM (inactive)
same,GI50,SK-MEL-5,56 µM (inactive)
same,GI50,ACHN,49.5 µM (inactive)
same,GI50,OVCAR-4,> 100 µM (inactive)
same,GI50,SW-620,40.1 µM (inactive)
same,GI50,MDA-MB-231,42.6 µM (inactive)
same,GI50,Malme-3M,24.3 µM (inactive)
same,GI50,SK-MEL-28,54.2 µM (inactive)
same,GI50,LOX IMVI,40.8 µM (inactive)
same,GI50,Hs-578T,56.6 µM (inactive)
same,GI50,KM12,75.3 µM (inactive)
same,GI50,CCRF-CEM,13.9 µM (inactive)
same,GI50,NCI/ADR-RES,33.2 µM (inactive)
same,GI50,A549,31.6 µM (inactive)
same,GI50,TK-10,50.4 µM (inactive)
same,GI50,SF-295,82.6 µM (inactive)
same,GI50,HCT-15,31.8 µM
same,GI50,OVCAR-8,34.8 µM (inactive)
same,GI50,OVCAR-5,> 100 µM (inactive)
same,GI50,SF-539,> 100 µM (inactive)
same,GI50,UACC-257,36.1 µM (inactive)
same,GI50,MCF7,55.5 µM (inactive)
same,GI50,MDA-N,> 100 µM (inactive)
same,GI50,SK-OV-3,> 100 µM (inactive)
same,GI50,786-0,73.3 µM (inactive)
same,GI50,NCI-H23,48.8 µM (inactive)
same,GI50,A498,30.7 µM (inactive)
same,GI50,SR,48.4 µM (inactive)
same,GI50,HOP-92,41.3 µM (inactive)
same,GI50,SK-MEL-2,> 100 µM (inactive)
same,GI50,EKVX,70.5 µM (inactive)
same,GI50,DU-145,50.4 µM (inactive)
same,GI50,NCI-H226,34.8 µM (inactive)
same,GI50,PC-3,59.3 µM (inactive)
same,GI50,UACC-62,60.3 µM (inactive)
same,GI50,COLO 205,86.1 µM (inactive)
same,GI50,HOP-62,71.3 µM (inactive)
same,GI50,U-251,57.3 µM (inactive)
same,GI50,OVCAR-3,32.4 µM (inactive)
same,GI50,SNB-19,> 100 µM (inactive)
same,GI50,HT-29,35.5 µM (inactive)
same,GI50,SNB-75,40.6 µM (inactive)
same,GI50,HCT-116,39.6 µM (inactive)
same,GI50,SF-268,46.2 µM (inactive)
same,GI50,MOLT-4,50 µM (inactive)
same,GI50,SN12C,76.6 µM (inactive)
same,GI50,K562,60 µM (inactive)
same,GI50,MDA-MB-435,59.6 µM (inactive)
same,GI50,RPMI-8226,26.4 µM (inactive)
CN(C(=O)C1=CCCCCC1)c1ccccc1I,GI50,UO-31,41.4 µM (inactive)
same,GI50,M14,31.6 µM (inactive)
same,GI50,IGROV-1,32.8 µM (inactive)
same,GI50,SK-MEL-5,23.6 µM (inactive)
same,GI50,ACHN,59.6 µM (inactive)
same,GI50,OVCAR-4,18.2 µM (inactive)
same,GI50,SW-620,40.6 µM (inactive)
same,GI50,MDA-MB-231,67.8 µM (inactive)
same,GI50,SK-MEL-28,37.5 µM (inactive)
same,GI50,LOX IMVI,28.9 µM (inactive)
same,GI50,Hs-578T,1.27 µM (inactive)
same,GI50,NCI-H460,32 µM (inactive)
same,GI50,CAKI-1,64.4 µM (inactive)
same,GI50,KM12,19.1 µM (inactive)
same,GI50,CCRF-CEM,41.7 µM (inactive)
same,GI50,NCI/ADR-RES,25.6 µM (inactive)
same,GI50,A549,62.1 µM (inactive)
same,GI50,T47D,23.7 µM (inactive)
same,GI50,SF-295,44.9 µM (inactive)
same,GI50,HCT-15,39.6 µM
same,GI50,OVCAR-8,38.5 µM (inactive)
same,GI50,HL-60,13.7 µM (inactive)
same,GI50,OVCAR-5,> 100 µM (inactive)
same,GI50,UACC-257,44.6 µM (inactive)
same,GI50,MCF7,51.5 µM (inactive)
same,GI50,MDA-N,35.5 µM (inactive)
same,GI50,SK-OV-3,43.5 µM (inactive)
same,GI50,786-0,27.8 µM (inactive)
same,GI50,NCI-H23,38.2 µM (inactive)
same,GI50,A498,0.201 µM (active)
same,GI50,SR,39 µM (inactive)
same,GI50,HOP-92,> 10 µM (inactive)
same,GI50,SK-MEL-2,32.4 µM (inactive)
same,GI50,EKVX,28.4 µM (inactive)
same,GI50,DU-145,50.7 µM (inactive)
same,GI50,PC-3,35 µM (inactive)
same,GI50,UACC-62,33.2 µM (inactive)
same,GI50,COLO 205,15.8 µM (inactive)
same,GI50,HOP-62,63.4 µM (inactive)
same,GI50,U-251,44.9 µM (inactive)
same,GI50,OVCAR-3,49.7 µM (inactive)
same,GI50,SNB-19,62.5 µM (inactive)
same,GI50,HCC 2998,45.9 µM (inactive)
same,GI50,SNB-75,13.5 µM (inactive)
same,GI50,HCT-116,25.9 µM (inactive)
same,GI50,SF-268,24.3 µM (inactive)
same,GI50,MOLT-4,49.3 µM (inactive)
same,GI50,SN12C,49.1 µM (inactive)
same,GI50,RXF 393,> 100 µM (inactive)
same,GI50,K562,59.2 µM (inactive)
same,GI50,MDA-MB-435,40.2 µM (inactive)
same,GI50,RPMI-8226,35.5 µM (inactive)
